Test results from publication PMC10202811 (Nature Medicine, 2023).
Where “and” joins values, the source holds several entries; their conditions need not be identical. Identical values can stand only once. Entries after “also recorded” stand apart in the source; their conditions may differ. Marks after values point to notes of the source that are not given here.

Experiment: Toxicity assessment (CTCAE version 4): treatment-related AEs, DLTs, dose reductions, RP2D; phase 1 NANT2015-02
Settings: for Toxicity Maximum Grade per patient: Sinus tachycardia / Toxicity Maximum Grade per patient: Neutrophil count decreased: CTCAE grade
Method: Five DLs (45, 60, 75, 95 and 115 mg/m^2/dose) were assessed in A1, using a 3 + 3 design. […] Myeloid growth factor was given 24 hours after the completion of topotecan/cyclophosphamide on B2, according to institutional standards. Instructions and hands-on training for a tablet dispersion formulation, validated by Pfizer, was provided to families of patients who could not swallow tablets.
Initially, this was the only DL planned, but, with a subsequent amendment, a second DL was added to cohort A2 (150 mg). […] Finally, because of the nature of the patients in cohort A2 (which had only two planned DLs), an expansion of up to six additional patients was planned for the highest DL tested with zero or one DLT in six DLT-evaluable patients. Accrual could continue in the expansion cohort as long as none, or at most one, of the patients experienced DLT in the DLT observation period; if two or more patients experienced DLT in the DLT observation period, this would lead to a discussion of the suitability of this dose. The probability of observing […] with DLT, out of six patients, is 0.11, 0.22, 0.47, 0.68 and 0.77 when the true probability of DLT is 0.10, 0.15, 0.25, 0.35 and 0.40, respectfully.
Patients who were not evaluable for DLT were replaced for dose-escalation purposes. […] The MTD was defined as the highest DL tested at which zero of six or one of six patients experience DLT. After determination of the MTD and review of all toxicities, and provided that other safety considerations were acceptable, the MTD was labeled the RP2D.
Toxicity was graded according to CTCAE version 4. DLT definitions included only toxicities deemed at least possibly related to therapy. For A1 and A2, hematologic DLT was defined as grade 4 thrombocytopenia or grade 4 neutropenia >7-day duration or a delay in the start of subsequent course by more than 14 days due to ongoing thrombocytopenia or neutropenia, in the absence of bone marrow disease progression seen on clinically indicated bone marrow biopsy (if performed). For cohort B2, hematological DLT is defined as a delay in the start of subsequent course by more than 14 days due to ongoing thrombocytopenia or neutropenia, in the absence of bone marrow disease progression seen on clinically indicated bone marrow biopsy after the first dose reduction of cyclophosphamide and topotecan. Non-hematologic DLT was defined as any non-hematologic toxicity that delayed the start of a subsequent cycle by more than 14 days or any grade ≥3 toxicity, with the exception of the following grade 3 toxicities: nausea, vomiting, anorexia or dehydration resolving to grade ≤2 within 72 hours; increase in hepatic transaminase or electrolyte abnormality resolving eligibility levels within 7 days; diarrhea persisting for less than 72 hours; fever; infection; febrile neutropenia; high cholesterol or triglycerides if responsive (to ≤grade 2) with statin treatment; weight gain; and hyperglycemia if responsive (to <grade 2) with dietary modification.

[1] = Cohort A1, neurotoxicity, one line per patient (PID)
[2] = Cohort A1, one line per patient (PID)

Which results are given for `C[C@H]1Oc2cc(cnc2N)-c2c(nn(C)c2C#N)CN(C)C(=O)c2ccc(F)cc21` [Lorlatinib, (10R)-7-amino-12-fluoro-2,10,16-trimethyl-15-oxo-10,15,16,17-tetrahydro-2H-8,4-(metheno)pyrazolo[4,3-h][2,5,11]-benzoxadiazacyclotetradecine-3-carbonitrile]?
patients developing grade 2 CNS effects (<18 years (cohorts A1 and B2), two of 33): 6%; patients requiring a dose reduction (<18 years, lorlatinib monotherapy): 9%; CNS DLT (CTCAE V4) (A1 (< 18 yrs), DL 5 (115 mg/m^2)): Grade 2 hallucination/insomnia; DLT (A1, DL5 (115 mg/m^2), course 1): YES; Toxicity reason for Dose reduction (A1, DL5 (115 mg/m^2), course 1): Grade 3 Diarrhea (lactose intolerance); DLT (A1, DL5 (115 mg/m^2), course 3): Delayed DLT; Toxicity reason for Dose reduction (A1, DL5 (115 mg/m^2), course 3): Grade 2 Hallucination/insomnia^1; CNS DLT (CTCAE V4) (A2 (≥ 18 yrs), 100 mg): Grade 2 memory impairment; CNS DLT (CTCAE V4) (A2 (≥ 18 yrs), 150 mg): Grade 2-4 hallucinations, delusions, suicidal ideations; also recorded: Grade 3 agitation^g; also recorded: Grade 4 Mania; DLT (A2, 100 mg, course 3): Delayed DLT^2; Toxicity reason for Dose reduction (A2, 100 mg, course 3): Grade 3 Hyperglycemia; DLT (A2, 100 mg, course 7): Delayed DLT; Toxicity reason for Dose reduction (A2, 100 mg, course 7): Grade 2 Memory impairment; DLT (A2, 150 mg, course 2): YES; Toxicity reason for Dose reduction (A2, 150 mg, course 2): Grade 2-4 Delusions, psychosis, suicide attempt^3; DLT (A2, 150 mg, course 2 (second patient)): YES; Toxicity reason for Dose reduction (A2, 150 mg, course 3): Grade 2 Lower extremity edema^5; DLT (A2, 150 mg, course 4): Delayed DLT; Toxicity reason for Dose reduction (A2, 150 mg, course 4): Grade 2 Peripheral neuropathy/edema; Toxicity reason for Dose reduction (A2, 150 mg, course 5): Grade 2 Peripheral neuropathy^6; CNS DLT (CTCAE V4) (B2 (< 18yrs), DL 5 (115 mg/m^2)): Grade 2 anxiety, depression, somnolence, hypersomnia; DLT (B2, DL5 (115 mg/m^2), course 3): Delayed DLT; Toxicity reason for Dose reduction (B2, DL5 (115 mg/m^2), course 3): Grade 2 anxiety, depression, somnolence, hypersomnia; Patients with DLT in course 1 (Cohort A1, DL1 (45 mg/m^2)): 0; Patients with DLT in course 2 (Cohort A1, DL1 (45 mg/m^2)): 0; Patients with DLT in other courses (Cohort A1, DL1 (45 mg/m^2)): 0; Patients with DLT in course 1 (Cohort A1, DL2 (60 mg/m^2)): 0; Patients with DLT in course 2 (Cohort A1, DL2 (60 mg/m^2)): 0; Patients with DLT in other courses (Cohort A1, DL2 (60 mg/m^2)): 0; Patients with DLT in course 1 (Cohort A1, DL3 (75 mg/m^2)): 0; Patients with DLT in course 2 (Cohort A1, DL3 (75 mg/m^2)): 0; Patients with DLT in other courses (Cohort A1, DL3 (75 mg/m^2)): 0; Patients with DLT in course 1 (Cohort A1, DL4 (95 mg/m^2)): 0; Patients with DLT in course 2 (Cohort A1, DL4 (95 mg/m^2)): 0; Patients with DLT in other courses (Cohort A1, DL4 (95 mg/m^2)): 0; Patients with DLT in course 1 (Cohort A1, DL5 (115 mg/m^2)): 1^b; Patients with DLT in course 2 (Cohort A1, DL5 (115 mg/m^2)): 0; Patients with DLT in other courses (Cohort A1, DL5 (115 mg/m^2)): 1^b; Toxicity Maximum Grade per patient: Sinus tachycardia (Cohort A1, patient PID 9): 2; Toxicity Maximum Grade per patient: Sinus tachycardia (Cohort A1, patient PID 17): 1; Toxicity Maximum Grade per patient: Sinus tachycardia (Cohort A1, patient PID 18): 1; Toxicity Maximum Grade per patient: Neutrophil count decreased (Cohort A1, patient PID 21): 2; Toxicity Maximum Grade per patient: Neutrophil count decreased (Cohort A1, patient PID 31): 3; Amnesia (CNS effect) (Cohort A1, grade 1-4 in c1-c4): 0 (0); Confusion (CNS effect) (Cohort A1, grade 1-4 in c1-c4): 0 (0); Delirium (CNS effect) (Cohort A1, grade 1-4 in c1-c4): 0 (0); Delusions (CNS effect) (Cohort A1, grade 1-4 in c1-c4): 0 (0); Dysarthria (CNS effect) (Cohort A1, grade 1-4 in c1-c4): 0 (0); Euphoria (CNS effect) (Cohort A1, grade 1-4 in c1-c4): 0 (0); Hypersomnia (CNS effect) (Cohort A1, grade 1-4 in c1-c4): 0 (0); Mania (CNS effect) (Cohort A1, grade 1-4 in c1-c4): 0 (0); Paresthesia (CNS effect) (Cohort A1, grade 1-4 in c1-c4): 0 (0); Restlessness (CNS effect) (Cohort A1, grade 1-4 in c1-c4): 0 (0); Somnolence (CNS effect) (Cohort A1, grade 1-4 in c1-c4): 0 (0); Stuttering (CNS effect) (Cohort A1, grade 1-4 in c1-c4): 0 (0); Suicidal ideation (CNS effect) (Cohort A1, grade 1-4 in c1-c4): 0 (0); Agitation: Toxicity Maximum Grade per patient [1]: 1; Anxiety: Toxicity Maximum Grade per patient [1]: 1; Cognitive disturbance: Toxicity Maximum Grade per patient [1]: 1; Concentration impairment: Toxicity Maximum Grade per patient [1]: 1; Depression: Toxicity Maximum Grade per patient [1]: 1; Hallucinations: Toxicity Maximum Grade per patient [1]: 2; Headache: Toxicity Maximum Grade per patient [1]: 1; Memory impairment: Toxicity Maximum Grade per patient [1]: 1; Alanine aminotransferase increased: Toxicity Maximum Grade per patient [2]: 1 and 2; Alkaline phosphatase increased: Toxicity Maximum Grade per patient [2]: 1 and 2; Anemia: Toxicity Maximum Grade per patient [2]: 2 and 1 and 3; Aspartate aminotransferase increased: Toxicity Maximum Grade per patient [2]: 1 and 3 and 2; Cholesterol high: Toxicity Maximum Grade per patient [2]: 2 and 1 and 3; Creatinine increased: Toxicity Maximum Grade per patient [2]: 1; Diarrhea: Toxicity Maximum Grade per patient [2]: 1 and 3; Edema limbs: Toxicity Maximum Grade per patient [2]: 1; Electrocardiogram QT corrected interval prolonged: Toxicity Maximum Grade per patient [2]: 1; Fatigue: Toxicity Maximum Grade per patient [2]: 1; Flatulence: Toxicity Maximum Grade per patient [2]: 2 and 1; Gastroesophageal reflux disease: Toxicity Maximum Grade per patient [2]: 2; Hyperglycemia: Toxicity Maximum Grade per patient [2]: 1 and 3; Hypertriglyceridemia: Toxicity Maximum Grade per patient [2]: 1 and 2 and 3; INCREASED APPETITE: Toxicity Maximum Grade per patient [2]: 1; Irritability: Toxicity Maximum Grade per patient [2]: 1; Lymphocyte count decreased: Toxicity Maximum Grade per patient [2]: 1 and 3
